Measured values reported in publication PMC11742723, “The clinical-stage drug BTZ-043 accumulates in murine tuberculosis lesions and efficiently acts against Mycobacterium tuberculosis” (Nature Communications, 2025).
Where “and” joins values, the source holds several entries; their conditions need not be identical. Identical values can stand only once.

Tests used:
[1] = system: Mtb H37Rv; experiment: BTZ-043 dose-fractionation study in Mtb-infected BALB/c mice (lung CFU); assay type: in vivo, Mycobacterium tuberculosis; conditions: for pulmonary CFU counts / mouse: 6 weeks of treatment, individual female mice
[2] = Impact of γ-irradiation on BTZ-043 in spiked liver mimetic tissue cryosections; parameters: species or system mouse; conditions: for ng/mg lung tissue, technical replicate 1 / ng/mg lung tissue, technical replicate 2 / Extract concentration, technical replicate 1 / Extract concentration, technical replicate 2 / ng/mg lung tissue, Mean: BTZ-043 spiked liver homogenate section (9.7 µg/g); for Extract concentration, technical replicate 1 / Extract concentration, technical replicate 2: LC-MS/MS; for ng/mg lung tissue, Mean: mean of technical replicates
[3] = IL-13tg, mouse, in vivo
[4] = system: Mtb; parameters: method as in PMID 37791784; conditions: C3HeB/FeJ substrain, 2 months of therapy; cited from earlier work
[5] = system: Mtb; parameters: method as in PMID 39793592; conditions: phase IIa EBA, 250 mg - 1750 mg once daily for 14 days; cited from earlier work

C[C@H]1COC2(CCN(c3nc(=O)c4cc(C(F)(F)F)cc([N+](=O)[O-])c4s3)CC2)O1 [BTZ-043]
pulmonary CFU counts / mouse ([1]; 2.5 mg/kg BTZ-043 BID): 20001 CFU counts / mouse and 18001 CFU counts / mouse and 34001 CFU counts / mouse and 55001 CFU counts / mouse
pulmonary CFU counts / mouse ([1]; 2.5 mg/kg BTZ-043 QD): 50001 CFU counts / mouse and 110001 CFU counts / mouse and 82501 CFU counts / mouse
pulmonary CFU counts / mouse ([1]; 5 mg/kg BTZ-043 QD): 160001 CFU counts / mouse and 92501 CFU counts / mouse
CFU reduction compared to the untreated control ([1]; BALB/c lungs, 250 mg/kg QD microcrystalline BTZ-043, 6 weeks): 3.7 log10 CFU
effect of fractionation of the dose into two administrations (BID vs QD, identical total dose) ([1]; amorphous BTZ-043, 5 to 50 mg/kg/day, 6 weeks): modest, but consistent, trend towards increased mycobactericidal activity
ng/mg lung tissue, technical replicate 1 ([2]; irradiation): 5.99 ng/mg and 26 ng/mg and 6.57 ng/mg and 6.4 ng/mg and 5.5 ng/mg and 5.14 ng/mg and 5.58 ng/mg
ng/mg lung tissue, technical replicate 2 ([2]; irradiation): 6.75 ng/mg and 23.9 ng/mg and 6.81 ng/mg and 5.4 ng/mg and 6.51 ng/mg and 6.42 ng/mg
Extract concentration, technical replicate 1 ([2]; irradiation): 0.0193 µg/mL and 0.079 µg/mL and 0.0196 µg/mL and 0.0194 µg/mL and 0.0175 µg/mL and 0.0152 µg/mL and 0.0178 µg/mL
Extract concentration, technical replicate 2 ([2]; irradiation): 0.0218 µg/mL and 0.0727 µg/mL and 0.0207 µg/mL and 0.0172 µg/mL and 0.0193 µg/mL and 0.0205 µg/mL
ng/mg lung tissue, Mean ([2]; irradiation): 6.37 ng/mg and 6.57 ng/mg and 6.6 ng/mg and 5.45 ng/mg and 5.82 ng/mg and 6 ng/mg
ng/mg lung tissue, technical replicate 1 ([2]; no irradiation): 6.1 ng/mg and 5.48 ng/mg and 7.3 ng/mg and 4.22 ng/mg and 6.84 ng/mg and 6.88 ng/mg and 6.26 ng/mg
ng/mg lung tissue, technical replicate 2 ([2]; no irradiation): 6.14 ng/mg and 6.24 ng/mg and 7.55 ng/mg and 4.89 ng/mg and 8.49 ng/mg and 7.42 ng/mg and 7.29 ng/mg
Extract concentration, technical replicate 1 ([2]; no irradiation): 0.0195 µg/mL and 0.0179 µg/mL and 0.0233 µg/mL and 0.0135 µg/mL and 0.0216 µg/mL and 0.0204 µg/mL and 0.0187 µg/mL
Extract concentration, technical replicate 2 ([2]; no irradiation): 0.0197 µg/mL and 0.0204 µg/mL and 0.0241 µg/mL and 0.0156 µg/mL and 0.0268 µg/mL and 0.0221 µg/mL and 0.0218 µg/mL
ng/mg lung tissue, Mean ([2]; no irradiation): 6.12 ng/mg and 5.86 ng/mg and 7.42 ng/mg and 4.56 ng/mg and 7.66 ng/mg and 7.15 ng/mg and 6.78 ng/mg
Conc. (Targetlynx export, sample extract) ([2]; BTZ-043 spiked liver homogenate section, no irradiation, injections 1 and a, internal standard reserpine): 1.87E-02
impact of γ-irradiation on the concentration and distribution of BTZ-043 ([2]; liver mimetic cryosections, 5.85 kGy): does not impact
BTZ-043 concentration in liver mimetic cryosection, outlier removed ([2]; spiked liver mimetic tissue, rout method outlier): 24.95 ng/mg
penetration into the lesion by MALDI imaging [3]: penetration of BTZ-043 into the lesion was observed
effect on pulmonary bacterial load [4]: significant reduction of the pulmonary bacterial load
bacterial killing with increasing dose in TB patients [5]: no obvious further increase in bacterial killing above daily doses of 1000 mg
